Laboratory results from patent publication US8168238B2, “Extracts of Aquilaria hulls and use thereof in the treatment of cancer” (priority 2009, dated 2012).
Converted amounts (≈) assume the structure as drawn.

Key:
[1] = system: HT29 cells; test: Cell morphology of HT29 cells, Giemsa staining, optical microscope; format: cell-based, human; settings: different concentrations, 24 hours, 10% Giemsa, FIG. 4
[2] = Partition coefficient between layers of a two-phase solvent system (HPLC peak area); format: physicochemical; settings: Hexane-EtOAc—MeOH—H2O 12.24.16.9, from peak areas of lower and upper layer
[3] = system: HT29 cells; test: MTT cell viability assay in HT29 cells; format: cell-based, human; settings: for concentrations that greatly reduced cell viability in HT29 cells: 24 hours, MTT, Table 9; for IC50: Homo sapiens, HT-29, 24 h, read-out: IC50 on HT29 cells
Description: HT cells were treated with the diluted cucrubitacin E and I (100-1.56 μg/ml). After the cells were treated for 24 hours, cell viability was determined by MTT assay, which quantitatively measures the metabolic activity of living cells.
The effects of the extract of Aquilaria agallocha Roxb. hulls on cell toxicity in T24 cells (human bladder carcinoma cells), HT29 cells (human colon adenocarcinoma cells), HeLa cells (cervical carcinoma cells), AGS cells (gastric epithelial cancer cells) and Hep G2 lo cells (human hepatocellular liver carcinoma cells) were tested. The above-mentioned cells were treated with the extract of Aquilaria agallocha Roxb. hulls. The procedures of the cell toxicity test were the same as those mentioned in Example 5.

[4] = system: P-388 leukemia cells; test: MTT assay in P-388 leukemia cells; format: cell-based; settings: for IC50: Mus musculus, P388, P-388 cells; for concentrations that inhibited cell proliferation in P-388 cells: Table 9
Description: HT cells were treated with the diluted cucrubitacin E and I (100-1.56 μg/ml). After the cells were treated for 24 hours, cell viability was determined by MTT assay, which quantitatively measures the metabolic activity of living cells. […] Please see Table 9.
In addition to HT29 cells, P-388 leukemia cells were also determined by MTT assay. […] Please see Table 9.

[5] = system: HT29 cells; test: Cell cycle distribution of HT29 cells by flow cytometry; format: cell-based, human; settings: increasing concentrations, FIG. 5
Description: The cell cycle of treated cells was examined by flow cytometry.

[6] = Description: Sephadex LH-20 gel (1.5 cm i.d.×36 cm) was used in the molecular sieve chromatography and methanol was used as the mobile phase.

Compound | cell morphology of HT29 cells [1] | partition coefficient [2] | concentrations that greatly reduced cell viability in HT29 cells [3] | IC50 [3] [µg/mL] | IC50 [4] [µg/mL] | concentrations that inhibited cell proliferation in P-388 cells [4] | cell cycle distribution, sub-G1 population [5] | solubility, in words [6]
CC(=O)OC(C)(C)/C=C/C(=O)[C@](C)(O)C1[C@H](O)C[C@@]2(C)C3CC=C4C(C=C(O)C(=O)C4(C)C)[C@]3(C)C(=O)C[C@]12C (some centres unmarked) [Cucurbitacin E, cucurbitacin E] | the nucleus were squeezed and the chromatin was condensed | 0.90 | above 14.1 μM | 14.1 (≈ 25.3 µM) | 6.5 (≈ 11.7 µM) | above 6.5 μM | sub-G1 populations increased | –
CC(C)(O)/C=C/C(=O)[C@](C)(O)C1[C@H](O)C[C@@]2(C)C3CC=C4C(C=C(O)C(=O)C4(C)C)[C@]3(C)C(=O)C[C@]12C (some centres unmarked) [Cucurbitacin I, cucurbitacin I] | the nucleus were squeezed and the chromatin was condensed | 0.42 | > 15.8 µM | 15.8 (≈ 30.7 µM) | 7.4 (≈ 14.4 µM) | > 7.4 µM | sub-G1 populations increased | –
CC(=O)OC(C)(C)/C=C/C(=O)[C@](C)(O)C1[C@H](O)C[C@@]2(C)C3CC=C4C(C=C(O[C@@H]5OC(CO)[C@@H](O)C(O)C5O)C(=O)C4(C)C)[C@]3(C)C(=O)C[C@]12C (some centres unmarked) [cucurbitacin E glucoside] | – | 0.05 | – | – | – | – | – | –
CC(C)(O)/C=C/C(=O)[C@](C)(O)C1[C@H](O)C[C@@]2(C)C3CC=C4C(C=C(O[C@@H]5OC(CO)[C@@H](O)C(O)C5O)C(=O)C4(C)C)[C@]3(C)C(=O)C[C@]12C (some centres unmarked) [cucurbitacin I glucoside] | – | 0.03 | – | – | – | – | – | –
O=c1c2cc(O)c(O)cc2oc2cc(O)c([C@@H]3O[C@H](CO)[C@@H](O)[C@H](O)[C@H]3O)c(O)c12 [mangiferin] | – | – | – | – | – | – | – | hard to dissolve in methanol
